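Results reflect a 48-hour exposure of cells in 96-well plates to compound at five concentrations. Abbreviation: GI50, concentration required for 50% inhibition of growth.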 Active and inactive are the calls of the source. No stated cut-off is given here; in the data, active = GI50 up to about 1.1 µM and inactive = higher.
Legend:
Assay in all cases: DTP human tumour cell line panel, 48 h
MCF7 = test system: MCF7
Malme-3M = test system: Malme-3M
SK-OV-3 = test system: SK-OV-3
NCI/ADR-RES = test system: NCI/ADR-RES
SK-MEL-2 = test system: SK-MEL-2
LOX IMVI = test system: LOX IMVI
HOP-62 = test system: HOP-62
HCT-15 = test system: HCT-15
IGROV-1 = test system: IGROV-1
A549 = test system: A549
HCC 2998 = test system: HCC 2998
ACHN = test system: ACHN
NCI-H23 = test system: NCI-H23
EKVX = test system: EKVX
Hs-578T = test system: Hs-578T
SR = test system: SR
HT-29 = test system: HT-29
A498 = test system: A498
SW-620 = test system: SW-620
SN12C = test system: SN12C
MDA-N = test system: MDA-N
CCRF-CEM = test system: CCRF-CEM
BT-549 = test system: BT-549
K562 = test system: K562
UACC-257 = test system: UACC-257
SNB-19 = test system: SNB-19
PC-3 = test system: PC-3
NCI-H460 = test system: NCI-H460
SK-MEL-5 = test system: SK-MEL-5
SF-268 = test system: SF-268
KM12 = test system: KM12
RPMI-8226 = test system: RPMI-8226
CAKI-1 = test system: CAKI-1
NCI-H226 = test system: NCI-H226
TK-10 = test system: TK-10
NCI-H522 = test system: NCI-H522
SK-MEL-28 = test system: SK-MEL-28
OVCAR-8 = test system: OVCAR-8
SF-295 = test system: SF-295
HOP-92 = test system: HOP-92
SF-539 = test system: SF-539
MDA-MB-231 = test system: MDA-MB-231
RXF 393 = test system: RXF 393
786-0 = test system: 786-0
HCT-116 = test system: HCT-116
OVCAR-4 = test system: OVCAR-4
DU-145 = test system: DU-145
SNB-75 = test system: SNB-75
UO-31 = test system: UO-31
COLO 205 = test system: COLO 205
MOLT-4 = test system: MOLT-4
OVCAR-3 = test system: OVCAR-3
M14 = test system: M14
OVCAR-5 = test system: OVCAR-5
UACC-62 = test system: UACC-62
MDA-MB-435 = test system: MDA-MB-435
U-251 = test system: U-251
T47D = test system: T47D
HL-60 = test system: HL-60
KM-20L2 = test system: KM-20L2
LXFL 529 = test system: LXFL 529
DMS-114 = test system: DMS-114
SNB-78 = test system: SNB-78
DMS-273 = test system: DMS-273
HOP-18 = test system: HOP-18

## COc1cc2c(c3c1c(=O)c1ccccc1n3C)C=CC1(CCCCC1)O2
MCF7
  GI50: 2.31 µM (inactive)
Malme-3M
  GI50: 3.43 µM (inactive)
SK-OV-3
  GI50: 5.53 µM (inactive)
NCI/ADR-RES
  GI50: 3.65 µM (inactive)
SK-MEL-2
  GI50: 3.35 µM (inactive)
LOX IMVI
  GI50: 3.75 µM (inactive)
HOP-62
  GI50: 2.3 µM (inactive)
HCT-15
  GI50: 3.08 µM
IGROV-1
  GI50: 2.15 µM (inactive)
A549
  GI50: 0.446 µM (active)
HCC 2998
  GI50: 4.59 µM (inactive)
ACHN
  GI50: 3.13 µM (inactive)
NCI-H23
  GI50: > 7.67 µM (inactive)
EKVX
  GI50: > 7.94 µM (inactive)
Hs-578T
  GI50: 2.54 µM (inactive)
SR
  GI50: 1.95 µM (inactive)
HT-29
  GI50: 2.61 µM (inactive)
A498
  GI50: 5.96 µM (inactive)
SW-620
  GI50: 6.92 µM (inactive)
SN12C
  GI50: 6.28 µM (inactive)
MDA-N
  GI50: 2.96 µM (inactive)
CCRF-CEM
  GI50: 2.55 µM (inactive)
BT-549
  GI50: 4.84 µM (inactive)
K562
  GI50: 1.56 µM (inactive)
UACC-257
  GI50: > 7.73 µM (inactive)
SNB-19
  GI50: > 7.18 µM (inactive)
PC-3
  GI50: 3.78 µM (inactive)
NCI-H460
  GI50: 3.82 µM (inactive)
SK-MEL-5
  GI50: 2.15 µM (inactive)
SF-268
  GI50: 4.48 µM (inactive)
KM12
  GI50: 0.603 µM (active)
RPMI-8226
  GI50: 0.455 µM (active)
CAKI-1
  GI50: 0.764 µM (active)
NCI-H226
  GI50: 8.07 µM (inactive)
TK-10
  GI50: > 8.95 µM (inactive)
NCI-H522
  GI50: 3.96 µM (inactive)
SK-MEL-28
  GI50: 4.8 µM (inactive)
OVCAR-8
  GI50: 4.81 µM (inactive)
SF-295
  GI50: 1.44 µM (inactive)
HOP-92
  GI50: 3.24 µM (inactive)
SF-539
  GI50: 1.57 µM (inactive)
MDA-MB-231
  GI50: 4.83 µM (inactive)
RXF 393
  GI50: 0.822 µM (active)
786-0
  GI50: 1.04 µM (active)
HCT-116
  GI50: 2.88 µM (inactive)
OVCAR-4
  GI50: 4.65 µM (inactive)
DU-145
  GI50: > 9.1 µM (inactive)
SNB-75
  GI50: 1.29 µM (inactive)
UO-31
  GI50: 0.1 µM (active)
COLO 205
  GI50: 4.34 µM (inactive)
MOLT-4
  GI50: 3.11 µM (inactive)
OVCAR-3
  GI50: 3.53 µM (inactive)
M14
  GI50: 2.68 µM (inactive)
OVCAR-5
  GI50: 5.73 µM (inactive)
UACC-62
  GI50: 4.14 µM (inactive)
MDA-MB-435
  GI50: 2.38 µM (inactive)
U-251
  GI50: 4.03 µM (inactive)
T47D
  GI50: 4.41 µM (inactive)
HL-60
  GI50: 3.88 µM (inactive)

## COc1ccc(NC(=O)C2C(=O)N(c3ccc(OC)cc3)C(=O)/C2=N\NC(N)=O)cc1 (centres undefined)
KM-20L2
  GI50: 49.5 µM (inactive)
Malme-3M
  GI50: 25.7 µM (inactive)
SK-OV-3
  GI50: 22.1 µM (inactive)
SK-MEL-2
  GI50: 40.9 µM (inactive)
LOX IMVI
  GI50: 65.8 µM (inactive)
HOP-62
  GI50: 16.3 µM (inactive)
LXFL 529
  GI50: 39.9 µM (inactive)
HCT-15
  GI50: > 100 µM
IGROV-1
  GI50: 19.7 µM (inactive)
DMS-114
  GI50: 63.7 µM (inactive)
HCC 2998
  GI50: 30.9 µM (inactive)
ACHN
  GI50: 27.6 µM (inactive)
NCI-H23
  GI50: 56.1 µM (inactive)
EKVX
  GI50: 40.6 µM (inactive)
SNB-78
  GI50: 57.1 µM (inactive)
HT-29
  GI50: 58.6 µM (inactive)
A498
  GI50: 22.1 µM (inactive)
SW-620
  GI50: > 100 µM (inactive)
SN12C
  GI50: 98.9 µM (inactive)
DMS-273
  GI50: 43.6 µM (inactive)
HOP-18
  GI50: 21.2 µM (inactive)
K562
  GI50: > 100 µM (inactive)
UACC-257
  GI50: 46.9 µM (inactive)
SNB-19
  GI50: 41.1 µM (inactive)
NCI-H460
  GI50: 38.9 µM (inactive)
SK-MEL-5
  GI50: 17.8 µM (inactive)
SF-268
  GI50: 20.2 µM (inactive)
KM12
  GI50: 20.3 µM (inactive)
RPMI-8226
  GI50: > 100 µM (inactive)
CAKI-1
  GI50: > 100 µM (inactive)
NCI-H226
  GI50: 21.8 µM (inactive)
TK-10
  GI50: 23.9 µM (inactive)
NCI-H522
  GI50: 45.6 µM (inactive)
SK-MEL-28
  GI50: 59.7 µM (inactive)
OVCAR-8
  GI50: 19.4 µM (inactive)
SF-295
  GI50: 37.1 µM (inactive)
HOP-92
  GI50: 31.3 µM (inactive)
SF-539
  GI50: 16.8 µM (inactive)
RXF 393
  GI50: 22.5 µM (inactive)
786-0
  GI50: 21.5 µM (inactive)
HCT-116
  GI50: 21.2 µM (inactive)
OVCAR-4
  GI50: 34.1 µM (inactive)
SNB-75
  GI50: 20.6 µM (inactive)
UO-31
  GI50: 27.7 µM (inactive)
COLO 205
  GI50: > 100 µM (inactive)
OVCAR-3
  GI50: 34 µM (inactive)
M14
  GI50: 92.5 µM (inactive)
OVCAR-5
  GI50: 97.5 µM (inactive)
UACC-62
  GI50: 16.6 µM (inactive)
U-251
  GI50: 18.5 µM (inactive)

From ChEMBL document CHEMBL1201862, “PubChem BioAssay data set” (2004)
